What was measured:
Test in all cases: KinaseProfiler Assay
[1] = target: ALK(h) (Homo sapiens, UniProt Q9UM73)
[2] = target: T1, ALK4(h) (Homo sapiens, UniProt P36896)
T1 sequence (P36896 24-505): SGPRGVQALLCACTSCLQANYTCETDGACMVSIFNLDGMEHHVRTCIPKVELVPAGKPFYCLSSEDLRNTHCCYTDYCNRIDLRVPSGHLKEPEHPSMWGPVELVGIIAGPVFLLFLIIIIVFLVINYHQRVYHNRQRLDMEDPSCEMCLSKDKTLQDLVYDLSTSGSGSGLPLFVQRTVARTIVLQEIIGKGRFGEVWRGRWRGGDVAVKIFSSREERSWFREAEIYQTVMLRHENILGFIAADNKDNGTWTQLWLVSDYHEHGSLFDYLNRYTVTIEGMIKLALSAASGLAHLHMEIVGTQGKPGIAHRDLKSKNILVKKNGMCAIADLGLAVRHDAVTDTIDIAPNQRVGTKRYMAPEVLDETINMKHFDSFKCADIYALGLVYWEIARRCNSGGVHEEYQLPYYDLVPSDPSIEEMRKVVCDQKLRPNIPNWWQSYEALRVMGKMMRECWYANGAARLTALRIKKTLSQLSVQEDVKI

[3] = target: EGFR(T790M)(h) (Homo sapiens, UniProt P00533, T790M)
[4] = target: JNK3(h) (Homo sapiens, UniProt P53779)
Chain of JNK3(h) (P53779 whole entry): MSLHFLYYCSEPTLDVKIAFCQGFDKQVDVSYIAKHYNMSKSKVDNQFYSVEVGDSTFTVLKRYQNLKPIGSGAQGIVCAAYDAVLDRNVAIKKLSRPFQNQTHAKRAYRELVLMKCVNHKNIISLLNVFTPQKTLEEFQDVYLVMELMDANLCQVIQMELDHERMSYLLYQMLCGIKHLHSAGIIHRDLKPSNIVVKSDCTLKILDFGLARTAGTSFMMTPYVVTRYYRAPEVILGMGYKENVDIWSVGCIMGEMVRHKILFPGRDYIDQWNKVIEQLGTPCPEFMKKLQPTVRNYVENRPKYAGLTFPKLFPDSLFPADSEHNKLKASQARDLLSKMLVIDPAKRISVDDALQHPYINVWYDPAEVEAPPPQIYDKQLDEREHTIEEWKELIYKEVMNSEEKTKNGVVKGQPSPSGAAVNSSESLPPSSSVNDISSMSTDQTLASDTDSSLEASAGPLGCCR

[5] = target: NEK7(h) (Homo sapiens, UniProt Q8TDX7)
Chain of NEK7(h) (Q8TDX7 whole entry): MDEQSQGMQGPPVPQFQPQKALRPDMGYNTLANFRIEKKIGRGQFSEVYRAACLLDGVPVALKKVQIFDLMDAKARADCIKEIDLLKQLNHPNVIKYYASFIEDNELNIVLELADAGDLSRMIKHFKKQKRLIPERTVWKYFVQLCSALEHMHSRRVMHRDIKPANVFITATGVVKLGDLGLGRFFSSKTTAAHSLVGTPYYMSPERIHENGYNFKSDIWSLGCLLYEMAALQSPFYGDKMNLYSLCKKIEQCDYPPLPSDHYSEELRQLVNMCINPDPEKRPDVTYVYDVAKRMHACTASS

[6] = target: PKCβII(h) (Homo sapiens, UniProt P05771)
Chain of PKCβII(h) (P05771 1-673 isoform P05771-2): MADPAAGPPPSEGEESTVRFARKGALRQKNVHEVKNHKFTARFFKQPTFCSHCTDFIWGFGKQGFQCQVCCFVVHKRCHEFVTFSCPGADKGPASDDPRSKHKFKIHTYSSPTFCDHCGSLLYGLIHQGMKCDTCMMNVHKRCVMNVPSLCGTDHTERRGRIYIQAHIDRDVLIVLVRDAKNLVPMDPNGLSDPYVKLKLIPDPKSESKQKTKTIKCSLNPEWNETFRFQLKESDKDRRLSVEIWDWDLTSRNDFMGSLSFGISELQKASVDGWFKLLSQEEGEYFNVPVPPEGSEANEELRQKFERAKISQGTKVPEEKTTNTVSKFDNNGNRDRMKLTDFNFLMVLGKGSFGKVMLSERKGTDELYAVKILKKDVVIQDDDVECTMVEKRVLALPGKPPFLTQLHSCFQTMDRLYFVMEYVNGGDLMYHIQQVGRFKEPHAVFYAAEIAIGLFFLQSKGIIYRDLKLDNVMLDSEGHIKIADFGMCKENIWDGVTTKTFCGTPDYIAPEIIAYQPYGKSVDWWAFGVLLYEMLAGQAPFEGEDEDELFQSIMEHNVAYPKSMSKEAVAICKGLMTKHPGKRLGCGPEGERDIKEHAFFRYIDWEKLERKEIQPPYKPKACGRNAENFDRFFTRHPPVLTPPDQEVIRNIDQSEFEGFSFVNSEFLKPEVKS

[7] = target: PKCδ(h) (Homo sapiens, UniProt Q05655)
[8] = target: T2, SGK2(h) (Homo sapiens, UniProt Q9HBY8)
T2 sequence (Q9HBY8 1-367): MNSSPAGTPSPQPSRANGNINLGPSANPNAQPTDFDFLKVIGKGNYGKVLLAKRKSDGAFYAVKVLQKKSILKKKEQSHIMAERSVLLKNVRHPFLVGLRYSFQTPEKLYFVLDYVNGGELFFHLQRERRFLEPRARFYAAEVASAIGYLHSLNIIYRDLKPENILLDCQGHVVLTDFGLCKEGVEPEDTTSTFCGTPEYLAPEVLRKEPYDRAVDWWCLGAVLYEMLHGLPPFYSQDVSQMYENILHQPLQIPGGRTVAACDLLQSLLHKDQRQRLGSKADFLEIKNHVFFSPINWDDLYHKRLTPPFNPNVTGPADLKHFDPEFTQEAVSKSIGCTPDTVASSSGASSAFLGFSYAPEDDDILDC

[9] = target: T3, TBK1(h) (Homo sapiens, UniProt Q9UHD2)
T3 sequence (Q9UHD2 1-729): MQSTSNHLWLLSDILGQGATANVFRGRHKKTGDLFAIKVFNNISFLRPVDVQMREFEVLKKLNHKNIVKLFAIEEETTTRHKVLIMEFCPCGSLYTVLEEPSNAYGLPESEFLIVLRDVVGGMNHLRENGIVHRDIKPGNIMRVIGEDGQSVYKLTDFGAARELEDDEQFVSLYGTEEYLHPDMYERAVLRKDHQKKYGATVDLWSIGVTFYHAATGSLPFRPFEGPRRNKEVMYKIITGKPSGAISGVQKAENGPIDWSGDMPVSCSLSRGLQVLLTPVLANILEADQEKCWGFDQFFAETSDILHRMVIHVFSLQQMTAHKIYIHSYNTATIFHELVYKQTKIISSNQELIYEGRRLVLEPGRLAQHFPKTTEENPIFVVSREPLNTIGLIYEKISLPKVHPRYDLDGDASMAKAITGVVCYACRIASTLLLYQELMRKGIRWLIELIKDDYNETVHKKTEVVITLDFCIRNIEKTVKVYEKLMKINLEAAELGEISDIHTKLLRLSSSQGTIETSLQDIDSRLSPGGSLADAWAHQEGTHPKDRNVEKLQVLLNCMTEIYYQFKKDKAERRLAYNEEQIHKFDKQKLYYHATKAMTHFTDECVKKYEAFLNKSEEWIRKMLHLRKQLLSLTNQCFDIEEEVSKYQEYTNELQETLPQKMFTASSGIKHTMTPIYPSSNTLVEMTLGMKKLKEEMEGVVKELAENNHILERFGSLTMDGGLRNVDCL

[10] = target: Tie2(R849W)(h) (Homo sapiens, UniProt Q02763, R849W)
Chain of Tie2(R849W)(h) (Q02763 23-1124 R849W): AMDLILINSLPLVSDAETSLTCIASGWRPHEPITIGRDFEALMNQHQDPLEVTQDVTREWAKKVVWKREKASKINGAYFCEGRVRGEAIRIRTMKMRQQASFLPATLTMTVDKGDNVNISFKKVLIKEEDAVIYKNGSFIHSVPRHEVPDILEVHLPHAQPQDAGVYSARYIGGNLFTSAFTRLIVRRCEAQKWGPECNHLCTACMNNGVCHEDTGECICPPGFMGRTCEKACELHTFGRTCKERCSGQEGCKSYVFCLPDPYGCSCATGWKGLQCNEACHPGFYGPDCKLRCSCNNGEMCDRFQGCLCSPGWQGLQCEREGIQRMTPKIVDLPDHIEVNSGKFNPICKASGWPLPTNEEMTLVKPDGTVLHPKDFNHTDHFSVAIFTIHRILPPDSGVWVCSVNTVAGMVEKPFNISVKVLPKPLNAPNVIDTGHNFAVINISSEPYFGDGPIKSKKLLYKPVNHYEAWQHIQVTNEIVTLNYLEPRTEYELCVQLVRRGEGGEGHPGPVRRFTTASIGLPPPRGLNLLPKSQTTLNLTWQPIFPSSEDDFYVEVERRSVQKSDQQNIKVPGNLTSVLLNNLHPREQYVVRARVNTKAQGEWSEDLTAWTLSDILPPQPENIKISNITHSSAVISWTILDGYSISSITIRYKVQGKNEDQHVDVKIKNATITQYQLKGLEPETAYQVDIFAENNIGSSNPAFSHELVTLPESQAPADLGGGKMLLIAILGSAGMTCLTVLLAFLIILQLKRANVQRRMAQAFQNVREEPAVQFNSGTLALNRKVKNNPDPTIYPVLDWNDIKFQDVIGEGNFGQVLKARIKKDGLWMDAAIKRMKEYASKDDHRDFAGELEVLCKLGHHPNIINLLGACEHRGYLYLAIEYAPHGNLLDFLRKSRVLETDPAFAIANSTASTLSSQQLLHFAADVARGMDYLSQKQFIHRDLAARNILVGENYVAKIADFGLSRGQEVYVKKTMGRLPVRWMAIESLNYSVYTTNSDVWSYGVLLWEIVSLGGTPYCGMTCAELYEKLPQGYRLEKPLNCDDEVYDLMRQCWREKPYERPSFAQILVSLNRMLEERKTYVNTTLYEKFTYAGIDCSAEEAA

[11] = target: ZIPK(h) (Homo sapiens, UniProt O43293)
Chain of ZIPK(h) (O43293 whole entry): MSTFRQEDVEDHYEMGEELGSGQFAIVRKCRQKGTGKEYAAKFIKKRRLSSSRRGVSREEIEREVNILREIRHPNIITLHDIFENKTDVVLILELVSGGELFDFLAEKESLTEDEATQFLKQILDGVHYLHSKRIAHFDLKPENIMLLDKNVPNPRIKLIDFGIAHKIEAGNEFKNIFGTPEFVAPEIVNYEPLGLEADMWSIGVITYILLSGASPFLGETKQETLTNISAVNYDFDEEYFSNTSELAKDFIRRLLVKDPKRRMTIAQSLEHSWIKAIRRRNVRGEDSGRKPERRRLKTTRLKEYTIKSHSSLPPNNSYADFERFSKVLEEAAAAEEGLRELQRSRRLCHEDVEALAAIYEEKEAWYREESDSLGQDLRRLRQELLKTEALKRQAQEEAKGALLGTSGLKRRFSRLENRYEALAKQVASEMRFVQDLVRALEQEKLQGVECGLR

Chain of ALK(h) (Q9UM73 19-1620): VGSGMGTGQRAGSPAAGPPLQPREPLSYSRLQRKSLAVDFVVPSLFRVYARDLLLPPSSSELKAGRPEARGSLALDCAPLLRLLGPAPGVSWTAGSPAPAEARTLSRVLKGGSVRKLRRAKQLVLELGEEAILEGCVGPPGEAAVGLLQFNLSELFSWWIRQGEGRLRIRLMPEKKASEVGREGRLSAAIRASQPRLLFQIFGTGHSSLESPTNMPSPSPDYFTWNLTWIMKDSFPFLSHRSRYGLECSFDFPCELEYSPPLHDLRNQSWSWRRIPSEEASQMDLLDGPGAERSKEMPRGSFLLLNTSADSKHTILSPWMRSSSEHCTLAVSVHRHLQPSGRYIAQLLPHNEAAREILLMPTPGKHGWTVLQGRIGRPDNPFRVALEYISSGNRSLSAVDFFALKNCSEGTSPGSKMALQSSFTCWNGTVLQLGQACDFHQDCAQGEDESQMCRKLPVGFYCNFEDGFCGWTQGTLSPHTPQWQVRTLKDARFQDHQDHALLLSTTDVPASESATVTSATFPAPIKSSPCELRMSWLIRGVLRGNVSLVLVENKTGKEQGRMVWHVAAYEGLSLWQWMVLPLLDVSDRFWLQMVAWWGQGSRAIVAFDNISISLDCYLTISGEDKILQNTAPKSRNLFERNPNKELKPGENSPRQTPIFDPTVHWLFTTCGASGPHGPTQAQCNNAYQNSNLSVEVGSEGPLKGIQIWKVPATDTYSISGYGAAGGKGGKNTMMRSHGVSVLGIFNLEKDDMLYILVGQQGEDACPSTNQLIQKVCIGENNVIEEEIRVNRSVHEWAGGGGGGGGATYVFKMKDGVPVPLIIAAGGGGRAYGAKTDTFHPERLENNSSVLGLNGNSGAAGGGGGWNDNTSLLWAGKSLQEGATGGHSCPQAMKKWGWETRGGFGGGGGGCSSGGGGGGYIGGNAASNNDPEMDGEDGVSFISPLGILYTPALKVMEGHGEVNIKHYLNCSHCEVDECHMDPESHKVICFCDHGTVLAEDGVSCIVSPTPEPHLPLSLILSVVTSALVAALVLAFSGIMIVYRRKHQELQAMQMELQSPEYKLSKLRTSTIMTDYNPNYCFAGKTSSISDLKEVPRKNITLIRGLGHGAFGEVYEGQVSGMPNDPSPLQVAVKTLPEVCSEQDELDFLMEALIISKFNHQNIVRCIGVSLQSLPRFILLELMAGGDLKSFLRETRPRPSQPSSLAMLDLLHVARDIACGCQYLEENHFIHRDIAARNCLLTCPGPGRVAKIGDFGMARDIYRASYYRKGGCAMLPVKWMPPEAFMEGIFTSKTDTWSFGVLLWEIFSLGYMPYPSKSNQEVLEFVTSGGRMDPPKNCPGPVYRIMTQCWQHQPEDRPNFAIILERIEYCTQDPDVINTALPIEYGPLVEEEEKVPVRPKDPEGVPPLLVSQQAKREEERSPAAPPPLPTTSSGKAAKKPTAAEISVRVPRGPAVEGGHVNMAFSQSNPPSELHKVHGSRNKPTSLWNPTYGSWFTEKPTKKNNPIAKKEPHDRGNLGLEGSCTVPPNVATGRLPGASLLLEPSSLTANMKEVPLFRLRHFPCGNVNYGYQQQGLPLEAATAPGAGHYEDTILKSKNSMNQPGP

CC(C)CCC(=O)[C@]1(O)C(O)=C(C(=O)C(C)C)C(=O)[C@H]1CCC(C)C [TH2, tetrahydroiso-cohumulone]
kinase inhibition ([1]; 1 μg/ml): 80% of control | kinase inhibition ([1]; 5 μg/ml): 59% of control | kinase inhibition ([1]; 25 μg/ml): 21% of control | kinase inhibition ([1]; 50 μg/ml): 21% of control | kinase inhibition ([1]; 100 μg/ml): 23% of control | kinase inhibition ([2]; 1 μg/ml): 109% of control | kinase inhibition ([2]; 5 μg/ml): 104% of control | kinase inhibition ([2]; 25 μg/ml): 97% of control | kinase inhibition ([2]; 50 μg/ml): 83% of control | kinase inhibition ([2]; 100 μg/ml): 63% of control | kinase inhibition ([3]; 1 μg/ml): 106% of control | kinase inhibition ([3]; 5 μg/ml): 104% of control | kinase inhibition ([3]; 25 μg/ml): 104% of control | kinase inhibition ([3]; 50 μg/ml): 100% of control | kinase inhibition ([3]; 100 μg/ml): 102% of control | kinase inhibition ([4]; 1 μg/ml): 110% of control | kinase inhibition ([4]; 5 μg/ml): 108% of control | kinase inhibition ([4]; 25 μg/ml): 80% of control | kinase inhibition ([4]; 50 μg/ml): 92% of control | kinase inhibition ([4]; 100 μg/ml): 88% of control | kinase inhibition ([5]; 1 μg/ml): 103% of control | kinase inhibition ([5]; 5 μg/ml): 107% of control | kinase inhibition ([5]; 25 μg/ml): 98% of control | kinase inhibition ([5]; 50 μg/ml): 95% of control | kinase inhibition ([5]; 100 μg/ml): 84% of control | kinase inhibition ([6]; 1 μg/ml): 107% of control | kinase inhibition ([6]; 5 μg/ml): 105% of control | kinase inhibition ([6]; 25 μg/ml): 99% of control | kinase inhibition ([6]; 50 μg/ml): 103% of control | kinase inhibition ([6]; 100 μg/ml): 98% of control | kinase inhibition ([7]; 1 μg/ml): 111% of control | kinase inhibition ([7]; 5 μg/ml): 110% of control | kinase inhibition ([7]; 25 μg/ml): 97% of control | kinase inhibition ([7]; 50 μg/ml): 92% of control | kinase inhibition ([7]; 100 μg/ml): 80% of control | kinase inhibition ([8]; 1 μg/ml): 133% of control | kinase inhibition ([8]; 5 μg/ml): 116% of control | kinase inhibition ([8]; 25 μg/ml): 112% of control | kinase inhibition ([8]; 50 μg/ml): 121% of control | kinase inhibition ([8]; 100 μg/ml): 69% of control | kinase inhibition ([9]; 1 μg/ml): 108% of control | kinase inhibition ([9]; 5 μg/ml): 107% of control | kinase inhibition ([9]; 25 μg/ml): 97% of control | kinase inhibition ([9]; 50 μg/ml): 86% of control | kinase inhibition ([9]; 100 μg/ml): 70% of control | kinase inhibition ([10]; 1 μg/ml): 91% of control | kinase inhibition ([10]; 5 μg/ml): 53% of control | kinase inhibition ([10]; 25 μg/ml): 48% of control | kinase inhibition ([10]; 50 μg/ml): 43% of control | kinase inhibition ([10]; 100 μg/ml): 46% of control | kinase inhibition ([11]; 1 μg/ml): 106% of control | kinase inhibition ([11]; 5 μg/ml): 96% of control | kinase inhibition ([11]; 25 μg/ml): 91% of control | kinase inhibition ([11]; 50 μg/ml): 81% of control | kinase inhibition ([11]; 100 μg/ml): 76% of control

From patent US20100137449A1, “SUBSTITUTED 1,3-CYCLOPENTADIONE MULTI-TARGET PROTEIN KINASE MODULATORS OF CANCER, ANGIOGENESIS AND THE INFLAMMATORY PATHWAYS ASSOCIATED THEREWITH” (METAPROTEOMICS, LLC, priority 2007, published 2010)
